Data taken from publication PMC5187537, “Antioxidant Activity of Oat Proteins Derived Peptides in Stressed Hepatic HepG2 Cells” (Antioxidants, 2016).
“And” between values parts separate entries of the source, which are not always exact repeats. Equal values may be shown once. Read-outs that look alike come from different tables or passages of the source.

Tests used:
[1] = test system: glutathione peroxidase (GPx); test: Glutathione peroxidase activity of lysates of AAPH-stressed cells; format: cell-based, Human; conditions: for Effect on GPx activity of AAPH-stressed cells: then AAPH 24 h
Procedure: (§1) Cells were seeded at 1 × 10^6 cells/plate in 60 mm tissue culture plates and allowed to grow for 24 h. In each plate, cells were washed twice with 4 mL of PBS (pH 7.2), and treated with 4 mL peptide samples (P1, P2, P6, P7) dissolved in culture media at 50 or 100 µM for 24 h. After removal of peptide solutions, cells were washed twice with 4 mL of PBS/plate and treated with 4 mL of […] dissolved in culture media and allowed to incubate for 24 h. Cells in each culture plate were harvested by incubation (5 min) with 0.5 mL of 0.25% trypsin, addition of 1 mL of culture media and centrifugation at 1000× g for 5 min. Cell pellets were washed with ice cold PBS (500 µL each) until no pink color was observed, re-suspended in ice cold PBS (300 µL) for the superoxide dismutase (SOD) assay, 500 µL for glutathione peroxidase (GPx) and catalase (CAT) assays. For total glutathione assay, 300 µL of 5% ice cold sulfosalicylic acid bubbled with 100% nitrogen was used for cell lysis. Cells were lysed by sonication on ice for 1 min using a probe-type sonicator (Vibra-Cell, Sonics and Materials Inc., Newtown, CT, USA) pulsing at 15 s on and 10 s off cycles. Following centrifugation of cell lysate at 13,000× g (4 °C), pellets containing cell debris were discarded, while supernatants were used for determination of glutathione content. Protein contents were determined using a modified Lowry assay.
The activity of GPx was determined as previously described in a 96-well plate. Briefly, in each well, 187.5 µL of potassium phosphate buffer was mixed with 12.5 µL NADPH (4 mM) solution and 25 µL of cell lysates or buffer (blank), and incubated at 30 °C for 5 min. Then, 100 µL of 0.15% cumene hydroperoxide was added in each well to begin the reaction. The rate of disappearance of NADPH was followed at 340 nm for 5 min. The activity was expressed as Units of GPx activity/mg protein.

[2] = test system: catalase (CAT); test: Catalase activity of lysates of AAPH-stressed cells; format: cell-based, Human
Procedure: as §1, with “assay. To measure the catalase activity, 1790 µL potassium phosphate buffer (50 mM, pH 7.0) was mixed with 200 µL cell lysate in a UV cuvette. Ten µL of H2O2 (30%) was added, and removal of H2O2 by catalase was followed at 240 nm using a Cary 50 Bio UV-Vis spectrophotometer with 18-cell changer (Varian Inc., Mississauga, ON, Canada). The activity was expressed as a percentage of control.” for “assay.”

[3] = test system: glutathione (GSH) of HepG2 cells; test: Cellular glutathione, enzymatic recycling method; format: cell-based, Human; conditions: treatment with AAPH alone, 24 h
Procedure: as §1
The assay was based on the enzymatic recycling method adjusted for 96-well plates. All solutions were prepared in sodium phosphate buffer (125 mM, pH 7.5) that contained 6.3 mM EDTA (ethylenediaminetetraacetic acid). In summary, 60 µL of 0.35 mM NADPH and 10 µL of 6 mM DTNB were added to wells, this was followed by the addition of 20 µL cell lysate or glutathione (GSH) standard. To initiate the reaction, 10 µL of glutathione reductase (5 IU/mL) was added and the rate of reaction between GSH from cell lysate and DTNB was measured at 412 nm. Total glutathione of cell lysates was calculated based on a standard curve of glutathione.

[4] = test system: RAW 264.7 cells; conditions: peptides from fish; cited from earlier work
Excerpt: The physiological role of GSH has long been of interest, particularly its antioxidant function due to the unique redox chemistry of its cysteinyl thiol residue. The oxidation of sulfhydryl groups on amino acids by ROS can lead to the formation of protein disulfide bonds, which can be reduced by GSH into individual sulfhydryl groups. GSH is also a substrate used by GPx in the reduction of peroxides and its concentration often reflects oxidative status of cells.

[5] = Oxygen radical absorbance capacity (ORAC) assay; conditions: fluorescein 0.08 µM, AAPH 150 mM, 37 °C, 50 min, potassium phosphate buffer pH 7.4 75 mM, peptides 100 and 200 µM; triplicate, mean ± STDEV
Procedure: The ORAC assay was performed as previously described. The decay of fluorescein (0.08 µM) by AAPH (150 mM) at 37 °C was recorded at 1 min intervals over 50 min using a BioTek™ FL × 800™ fluorescent microplate reader (Fisher Scientific, Nepean, ON, Canada) with fluorescence filters (excitation 485/20 nm, emission 528/20 nm). Potassium phosphate buffer (pH 7.4, 75 mM) was used to dissolve peptides (100 and 200 µM) and Trolox standards (6.25–100 µM). Data analysis was done with Gen5^TM software (Fisher Scientific, Nepean, ON, Canada), and ORAC values were expressed as µM Trolox Equivalent (TE)/µM peptide using the standard curve.

[6] = test system: HepG2 cells; format: cell-based, Human; conditions: then 20 mM AAPH 24 h, MTT; for Increase of viability of cells compared to PC: 100 µM peptide 24 h, p < 0.05; for Cytoprotective effect against AAPH-induced damage: 50 or 100 µM peptide 24 h
Procedure: Human hepatocellular carcinoma (HepG2) cells were purchased from the American Type Culture Collection (ATCC; Manassas, VA, USA). They were cultured at 37 °C in a humidified incubator with 5% CO2 and 95% air. Dulbecco’s Minimal Essential Media (DMEM) supplemented with 10% (v/v) Fetal Bovine Serum was used for the maintenance of cells. […] The MTT (3-(4,5-dimethylthiazol-2-yl)-2,5-diphenyltetrazolium bromide) assay, as described in an earlier research, was used for cytotoxicity and cytoprotective tests. […] Following another 24 h incubation, cells were washed twice with 200 µL of PBS. Ten µL of MTT solution (5 mg/mL in PBS) and 100 µL of media were added to each well. After 1 h, MTT solution was removed, and 50 µL DMSO were added. Absorbances were recorded at 570 nm with 630 nm background subtraction using a BioTek Epoch™ microplate reader (Fisher Scientific, Nepean, ON, Canada). Untreated cells were used as negative control (NC) and cells treated with only AAPH were used as positive control (PC).

[7] = test system: superoxide dismutase (SOD); test: Superoxide dismutase activity of lysates of AAPH-stressed cells; format: cell-based, Human; conditions: 50 µM peptide 24 h, then AAPH 24 h
Procedure: as §1
The SOD activity was measured based on the rate of reduction of nitroblue tetrazolium (2.24 mM) to formazan by xanthine oxidase (13.2 U/mL) at 560 nm. Eight concentrations of each cell extract ([…] protein/mL) or SOD standard (2–500 ng/mL) were used to obtain inhibition curves. Specifically, 20 µL of cell sample, or buffer (blank) was mixed with 160 µL of assay solution, and 20 µL of xanthine oxidase was added to initiate the reaction. The reduction of nitroblue tetrazolium to blue formazan by O2^−• generated in situ was followed at 560 nm. SOD activities were calculated and expressed as units per milligram of protein.

[8] = cited from earlier work
Procedure: Recent studies have, however, shown that, in addition to fibers and polyphenols, hydrolyzed proteins and peptides also contribute to the health promoting effect of cereals. […] Protein hydrolysates from oats, wheat, and rice have all shown antioxidant activities against common reactive oxygen species (ROS) in various systems. The peroxyl radical scavenging activity of oat proteins in the ... || Peroxyl radical (ROO^•) scavenging activities of P1–P7 were evaluated using the ORAC assay. […] ROO^• scavenging activities can be affected by sequences, molecular weights and the presence of amino acids that can form stable radical intermediates after donation of electrons or protons. The highest activities of P2 and P5 can be explained ...

[9] = 50 µM peptide 24 h, then AAPH 24 h
[10] = peptide from beta-lactoglobulin

CC(C)(N=NC(C)(C)C(=N)N)C(=N)N.Cl.Cl [AAPH, 2,2′-azobis(2-methylpropionamidine) dihydrochloride, reference compound]
Decrease of GPx activity relative to NC ([1]; HepG2 cells incubated with AAPH alone, 24 h): 18.2%
Increase of CAT activity ([2]; treatment with AAPH alone, 24 h): ~2 fold
Decrease of GSH [3]: 58.1%

CAAP [literature peptide from fish]
Increase of ROS due to AAPH [4]: attenuated

DVNNNANQLEPR [P7, oat protein derived peptide …, synthesized by GenScript]
ORAC value (peroxyl radical scavenging activity) [5]: 0.14–0.61 µM TE/µM and 0.14 ± 0.04 µM TE/µM
Increase of viability of cells compared to PC [6]: 8.3%
Cytoprotective effect against AAPH-induced damage [6]: cytoprotective
Effect on GPx activity of AAPH-stressed cells ([1]; 50 µM peptide 24 h): had no effect
Effect on GPx activity of AAPH-stressed cells ([1]; 100 µM peptide 24 h): only suppressed the damage caused by AAPH
Effect on SOD activity compared to AAPH treated cells only (PC) [7]: did not affect the activity
Further increase of CAT activity compared to PC cells [2, 9]: 90%

FNDRLRQGQLL [P1, oat protein derived peptide …, synthesized by GenScript]
ORAC value (peroxyl radical scavenging activity) [5]: 0.14–0.61 µM TE/µM
Increase of viability of cells compared to PC [6]: 15.5%
Cytoprotective effect against AAPH-induced damage [6]: cytoprotective
Effect on GPx activity of AAPH-stressed cells ([1]; 50 µM peptide 24 h): completely restored the activity
Effect on SOD activity compared to AAPH treated cells only (PC) [7]: did not affect the activity
Effect on CAT activity compared to PC cells [2, 9]: no change was observed
Effect on CAT activity ([2]; 100 µM peptide 24 h, then AAPH 24 h): not affected by the peptide concentration

GQTV [P3, oat protein derived peptide GQTV, synthesized by GenScript]
Cytoprotective effect against AAPH-induced damage [6]: no effect on oxidative damages

GQTVFNDRLRQGQLL [P4, oat protein derived peptide …, synthesized by GenScript]
ORAC value (peroxyl radical scavenging activity) [5]: 0.14–0.61 µM TE/µM
Cytoprotective effect against AAPH-induced damage [6]: no effect on oxidative damages

MHIRL [literature peptide from beta-lactoglobulin]
ORAC activity [8, 10]: 0.306 µM TE/µM

VCSV [literature peptide from fish]
Increase of ROS due to AAPH [4]: attenuated

WYSLAMAASDI [literature peptide from beta-lactoglobulin]
ORAC activity [8, 10]: 2.6 µM/µM

YAEERYPIL [literature peptide from egg white]
ORAC activity ([8]; peptide from egg white): 3.5 µM TE/µM
